The text below walks through data of ChEMBL document CHEMBL4613209, “Quinolone hybrids and their anti-cancer activities: An overview” (Eur J Med Chem, 2019).

In one assay the test system is HL-60. Kind of assay: Cytotoxicity against human HL60 cells assessed as reduction in cell viability.
Settings: not given
The format is functional, cell-based.
With `C[C@H]1COc2c(N3CCN(C)CC3)c(F)cc3c(=O)c(-c4nnc(-c5cn(C6CC6)c6cc(N7CCN(C)CC7)c(F)cc6c5=O)o4)cn1c23`, the IC50 (usually the concentration that inhibits the measured activity by half) was in the range of 0.26 to 14.5 µM.
On the same count and under the same terms, the value for `CN1CCN(c2cc3c(cc2F)c(=O)c(-c2nn4c(-c5cn(C6CC6)c6cc(N7CCNCC7)c(F)cc6c5=O)nnc4s2)cn3C2CC2)CC1` was 0.12 to 5.2 µM; that for `CCN1CCN(c2cc3c(cc2F)c(=O)c(-c2nn4c(-c5cn(C6CC6)c6cc(N7CCN(C)CC7)c(F)cc6c5=O)nnc4s2)nn3C2CC2)CC1` was 0.12 to 5.2 µM.
Still for that read-out and setting: under `O=c1c(-c2nnc(-c3cn(C4CC4)c4cc(N5CCNCC5)c(F)cc4c3=O)o2)cn(C2CC2)c2cc(N3CCNCC3)c(F)cc12` stands 0.26 to 14.5 µM; under `COc1ccc(/C=N/NC(=O)c2cn(C3CC3)c3cc(N/N=C/c4ccc(OC)cc4)c(F)cc3c2=O)cc1`, 1.5 to 23.5 µM; under `CN1CCN(c2cc3c(nc2F)c(=O)c(-c2nnc4sc(-c5cn(C6CC6)c6cc(N7CCNCC7)c(F)cc6c5=O)nn24)cn3C2CC2)CC1`, 0.12 to 5.2 µM.
`COc1cc(/C=N/NC(=O)c2cn(C3CC3)c3cc(N/N=C/c4ccc(O)c(OC)c4)c(F)cc3c2=O)ccc1O`: the IC50 lay in the range of 1.5 to 2.8 µM.
Same read-out and setting: the value for `CCN1CCN(c2cc3c(cc2F)c(=O)c(-c2nnc(-c4cn(C5CC5)c5cc(N6CCNCC6)c(F)cc5c4=O)o2)cn3C2CC2)CC1` was 0.26 to 14.5 µM.
Same read-out and setting: the value for `CCn1cc(-c2nnc(-c3cn(C4CC4)c4cc(N5CCNCC5)c(F)cc4c3=O)o2)c(=O)c2cc(F)c(N3CCNCC3)cc21` was 0.26 to 14.5 µM; that for `O=C(N/N=C/c1ccc(Cl)cc1)c1cn(C2CC2)c2cc(N/N=C/c3ccc(Cl)cc3)c(F)cc2c1=O` was 1.5 to 23.5 µM.
Same read-out and setting: the value for `COc1cc(/C=N/NC(=O)c2cn(C3CC3)c3cc(N/N=C/c4cc(OC)c(OC)c(OC)c4)c(F)cc3c2=O)cc(OC)c1OC` was 1.5 to 23.5 µM; that for `C[C@H]1COc2c(N3CCN(C)CC3)c(F)cc3c(=O)c(-c4nn5c(-c6cn(C7CC7)c7cc(N8CCNCC8)c(F)cc7c6=O)nnc5s4)cn1c23` was 0.12 to 5.2 µM; that for `CCN1CCN(c2cc3c(nc2F)c(=O)c(-c2nn4c(-c5cn(C6CC6)c6cc(N7CCN(C)CC7)c(F)cc6c5=O)nnc4s2)cn3C2CC2)CC1` was 0.12 to 5.2 µM.
For `O=C(N/N=C/c1ccc2c(c1)OCO2)c1cn(C2CC2)c2cc(N/N=C/c3ccc4c(c3)OCO4)c(F)cc2c1=O`, the IC50 fell in the range of 1.5 to 23.5 µM.
On the same count and under the same terms, the value for `C[C@H]1COc2c(N3CCN(C)CC3)c(F)cc3c(=O)c(-c4nn5c(-c6cn(C7CC7)c7cc(N8CCN(C)CC8)c(F)cc7c6=O)nnc5s4)cn1c23` was 0.12 to 5.2 µM.
Still for that read-out and setting: under `O=C(N/N=C/c1ccc([N+](=O)[O-])cc1)c1cn(C2CC2)c2cc(N/N=C/c3ccc([N+](=O)[O-])cc3)c(F)cc2c1=O` stands 1.5 to 23.5 µM.
On the same count and under the same terms, under `Cc1ccc(/C=N/NC(=O)c2cn(C3CC3)c3cc(N/N=C/c4ccc(C)cc4)c(F)cc3c2=O)cc1` stands 1.5 to 23.5 µM; under `CC1COc2c(N3CCN(C)CC3)c(F)cc3c(=O)c(-c4nn5c(-c6cn(C7CC7)c7cc(N8CCN(C)CC8)c(F)cc7c6=O)nnc5s4)cn1c23` (configuration not stated), 14.2 to 23.7 µM; under `COc1ccccc1/C=N/NC(=O)c1cn(C2CC2)c2cc(N/N=C/c3ccccc3OC)c(F)cc2c1=O`, 1.5 to 23.5 µM.

Another assay concerns L1210. Description: Cytotoxicity against mouse L1210 cells assessed as reduction in cell viability. It is filed as functional, cell-based.
Settings: not given
Turning to `C[C@H]1COc2c(N3CCN(C)CC3)c(F)cc3c(=O)c(-c4nnc(-c5cn(C6CC6)c6cc(N7CCN(C)CC7)c(F)cc6c5=O)o4)cn1c23`, the IC50 is 0.26 to 14.5 µM.
Same read-out and setting: under `CN1CCN(c2cc3c(cc2F)c(=O)c(-c2nn4c(-c5cn(C6CC6)c6cc(N7CCNCC7)c(F)cc6c5=O)nnc4s2)cn3C2CC2)CC1` stands 0.12 to 5.2 µM.
Still for that read-out and setting: under `CCN1CCN(c2cc3c(cc2F)c(=O)c(-c2nn4c(-c5cn(C6CC6)c6cc(N7CCN(C)CC7)c(F)cc6c5=O)nnc4s2)nn3C2CC2)CC1` stands 0.12 to 5.2 µM.
The same measure, in the same setting: under `O=c1c(-c2nnc(-c3cn(C4CC4)c4cc(N5CCNCC5)c(F)cc4c3=O)o2)cn(C2CC2)c2cc(N3CCNCC3)c(F)cc12` stands 0.26 to 14.5 µM; under `COc1ccc(/C=N/NC(=O)c2cn(C3CC3)c3cc(N/N=C/c4ccc(OC)cc4)c(F)cc3c2=O)cc1`, 1.5 to 23.5 µM.
As to `CN1CCN(c2cc3c(nc2F)c(=O)c(-c2nnc4sc(-c5cn(C6CC6)c6cc(N7CCNCC7)c(F)cc6c5=O)nn24)cn3C2CC2)CC1`, the IC50 was 0.12 to 5.2 µM.
Same read-out and setting: the value for `COc1cc(/C=N/NC(=O)c2cn(C3CC3)c3cc(N/N=C/c4ccc(O)c(OC)c4)c(F)cc3c2=O)ccc1O` was 1.5 to 2.8 µM; that for `CCN1CCN(c2cc3c(cc2F)c(=O)c(-c2nnc(-c4cn(C5CC5)c5cc(N6CCNCC6)c(F)cc5c4=O)o2)cn3C2CC2)CC1` was 0.26 to 14.5 µM; that for `CCn1cc(-c2nnc(-c3cn(C4CC4)c4cc(N5CCNCC5)c(F)cc4c3=O)o2)c(=O)c2cc(F)c(N3CCNCC3)cc21` was 0.26 to 14.5 µM.
On the same count and under the same terms, the value for `O=C(N/N=C/c1ccc(Cl)cc1)c1cn(C2CC2)c2cc(N/N=C/c3ccc(Cl)cc3)c(F)cc2c1=O` was 1.5 to 23.5 µM; that for `COc1cc(/C=N/NC(=O)c2cn(C3CC3)c3cc(N/N=C/c4cc(OC)c(OC)c(OC)c4)c(F)cc3c2=O)cc(OC)c1OC` was 1.5 to 23.5 µM; that for `C[C@H]1COc2c(N3CCN(C)CC3)c(F)cc3c(=O)c(-c4nn5c(-c6cn(C7CC7)c7cc(N8CCNCC8)c(F)cc7c6=O)nnc5s4)cn1c23` was 0.12 to 5.2 µM.
For the molecule `CCN1CCN(c2cc3c(nc2F)c(=O)c(-c2nn4c(-c5cn(C6CC6)c6cc(N7CCN(C)CC7)c(F)cc6c5=O)nnc4s2)cn3C2CC2)CC1`, the IC50 fell in the range of 0.12 to 5.2 µM.
Same read-out and setting: the value for `O=C(N/N=C/c1ccc2c(c1)OCO2)c1cn(C2CC2)c2cc(N/N=C/c3ccc4c(c3)OCO4)c(F)cc2c1=O` was 1.5 to 23.5 µM.
Same read-out and setting: the value for `C[C@H]1COc2c(N3CCN(C)CC3)c(F)cc3c(=O)c(-c4nn5c(-c6cn(C7CC7)c7cc(N8CCN(C)CC8)c(F)cc7c6=O)nnc5s4)cn1c23` was 0.12 to 5.2 µM; that for `O=C(N/N=C/c1ccc([N+](=O)[O-])cc1)c1cn(C2CC2)c2cc(N/N=C/c3ccc([N+](=O)[O-])cc3)c(F)cc2c1=O` was 1.5 to 23.5 µM; that for `Cc1ccc(/C=N/NC(=O)c2cn(C3CC3)c3cc(N/N=C/c4ccc(C)cc4)c(F)cc3c2=O)cc1` was 1.5 to 23.5 µM.
For the molecule `CC1COc2c(N3CCN(C)CC3)c(F)cc3c(=O)c(-c4nn5c(-c6cn(C7CC7)c7cc(N8CCN(C)CC8)c(F)cc7c6=O)nnc5s4)cn1c23` (configuration not stated), the IC50 fell in the range of 14.2 to 23.7 µM.
On the same count and under the same terms, the value for `COc1ccccc1/C=N/NC(=O)c1cn(C2CC2)c2cc(N/N=C/c3ccccc3OC)c(F)cc2c1=O` was 1.5 to 23.5 µM.

Another assay deals with CHO. Description: Cytotoxicity against CHO cells assessed as reduction in cell viability. As to conditions: Cricetulus griseus. The format is functional, cell-based.
With `C[C@H]1COc2c(N3CCN(C)CC3)c(F)cc3c(=O)c(-c4nnc(-c5cn(C6CC6)c6cc(N7CCN(C)CC7)c(F)cc6c5=O)o4)cn1c23`, the IC50 fell in the range of 0.26 to 14.5 µM.
`CN1CCN(c2cc3c(cc2F)c(=O)c(-c2nn4c(-c5cn(C6CC6)c6cc(N7CCNCC7)c(F)cc6c5=O)nnc4s2)cn3C2CC2)CC1`: the IC50 fell in the range of 0.12 to 5.2 µM.
For `CCN1CCN(c2cc3c(cc2F)c(=O)c(-c2nn4c(-c5cn(C6CC6)c6cc(N7CCN(C)CC7)c(F)cc6c5=O)nnc4s2)nn3C2CC2)CC1`, the IC50 is 0.12 to 5.2 µM.
On the same count and under the same terms, the value for `O=c1c(-c2nnc(-c3cn(C4CC4)c4cc(N5CCNCC5)c(F)cc4c3=O)o2)cn(C2CC2)c2cc(N3CCNCC3)c(F)cc12` was 0.26 to 14.5 µM.
The same measure, in the same setting: the value for `COc1ccc(/C=N/NC(=O)c2cn(C3CC3)c3cc(N/N=C/c4ccc(OC)cc4)c(F)cc3c2=O)cc1` was 1.5 to 23.5 µM.
For the molecule `CN1CCN(c2cc3c(nc2F)c(=O)c(-c2nnc4sc(-c5cn(C6CC6)c6cc(N7CCNCC7)c(F)cc6c5=O)nn24)cn3C2CC2)CC1`, the IC50 lay within 0.12 to 5.2 µM.
Still for that read-out and setting: the value for `COc1cc(/C=N/NC(=O)c2cn(C3CC3)c3cc(N/N=C/c4ccc(O)c(OC)c4)c(F)cc3c2=O)ccc1O` was 1.5 to 2.8 µM; that for `CCN1CCN(c2cc3c(cc2F)c(=O)c(-c2nnc(-c4cn(C5CC5)c5cc(N6CCNCC6)c(F)cc5c4=O)o2)cn3C2CC2)CC1` was 0.26 to 14.5 µM.
Still for that read-out and setting: under `CCn1cc(-c2nnc(-c3cn(C4CC4)c4cc(N5CCNCC5)c(F)cc4c3=O)o2)c(=O)c2cc(F)c(N3CCNCC3)cc21` stands 0.26 to 14.5 µM; under `O=C(N/N=C/c1ccc(Cl)cc1)c1cn(C2CC2)c2cc(N/N=C/c3ccc(Cl)cc3)c(F)cc2c1=O`, 1.5 to 23.5 µM.
With `COc1cc(/C=N/NC(=O)c2cn(C3CC3)c3cc(N/N=C/c4cc(OC)c(OC)c(OC)c4)c(F)cc3c2=O)cc(OC)c1OC`, the IC50 was 1.5 to 23.5 µM.
For `C[C@H]1COc2c(N3CCN(C)CC3)c(F)cc3c(=O)c(-c4nn5c(-c6cn(C7CC7)c7cc(N8CCNCC8)c(F)cc7c6=O)nnc5s4)cn1c23`, the half-inhibitory concentration (IC50) lay within 0.12 to 5.2 µM.
Same read-out and setting: the value for `CCN1CCN(c2cc3c(nc2F)c(=O)c(-c2nn4c(-c5cn(C6CC6)c6cc(N7CCN(C)CC7)c(F)cc6c5=O)nnc4s2)cn3C2CC2)CC1` was 0.12 to 5.2 µM; that for `O=C(N/N=C/c1ccc2c(c1)OCO2)c1cn(C2CC2)c2cc(N/N=C/c3ccc4c(c3)OCO4)c(F)cc2c1=O` was 1.5 to 23.5 µM; that for `C[C@H]1COc2c(N3CCN(C)CC3)c(F)cc3c(=O)c(-c4nn5c(-c6cn(C7CC7)c7cc(N8CCN(C)CC8)c(F)cc7c6=O)nnc5s4)cn1c23` was 0.12 to 5.2 µM.
The same measure, in the same setting: under `O=C(N/N=C/c1ccc([N+](=O)[O-])cc1)c1cn(C2CC2)c2cc(N/N=C/c3ccc([N+](=O)[O-])cc3)c(F)cc2c1=O` stands 1.5 to 23.5 µM.
On the same count and under the same terms, under `Cc1ccc(/C=N/NC(=O)c2cn(C3CC3)c3cc(N/N=C/c4ccc(C)cc4)c(F)cc3c2=O)cc1` stands 1.5 to 23.5 µM; under `CC1COc2c(N3CCN(C)CC3)c(F)cc3c(=O)c(-c4nn5c(-c6cn(C7CC7)c7cc(N8CCN(C)CC8)c(F)cc7c6=O)nnc5s4)cn1c23` (configuration not stated), 14.2 to 23.7 µM; under `COc1ccccc1/C=N/NC(=O)c1cn(C2CC2)c2cc(N/N=C/c3ccccc3OC)c(F)cc2c1=O`, 1.5 to 23.5 µM.
